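Test compounds were applied to cells in 96-well plates for 48 hours at 5 doses. Here, GI50 denotes the concentration required for 50% inhibition of growth. TGI denotes the concentration required for complete inhibition of growth.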 Where a SMILES comes first, the peptide text is derived from it. The star is where a group is joined. Boc = CC(C)(C)OC(=O)*
What was measured:
Experiment in all cases: NCI anticancer screen, dose series, 48 h
HCT-15 colon = system: HCT-15 colon
HOP-92 NSCLC = system: HOP-92 NSCLC
IGROV1 ovarian = system: IGROV1 ovarian
K-562 leukemia = system: K-562 leukemia
NCI/ADR-RES ovarian = system: NCI/ADR-RES ovarian
SF-268 CNS = system: SF-268 CNS
SK-MEL-2 melanoma = system: SK-MEL-2 melanoma
T-47D breast = system: T-47D breast
U251 CNS = system: U251 CNS
UACC-62 melanoma = system: UACC-62 melanoma
DLD-1 colon = system: DLD-1 colon
DMS 114 small cell lung = system: DMS 114 small cell lung
DMS 273 small cell lung = system: DMS 273 small cell lung
HOP-18 NSCLC = system: HOP-18 NSCLC
KM20L2 colon = system: KM20L2 colon
M19-MEL melanoma = system: M19-MEL melanoma
SNB-78 CNS = system: SNB-78 CNS
LXFL 529 NSCLC = system: LXFL 529 NSCLC

SMILES | TGI (HCT-15 colon) | TGI (HOP-92 NSCLC) | TGI (IGROV1 ovarian) | TGI (K-562 leukemia) | TGI (NCI/ADR-RES ovarian) | TGI (SF-268 CNS) | TGI (SK-MEL-2 melanoma) | TGI (T-47D breast) | TGI (U251 CNS) | TGI (UACC-62 melanoma) | TGI (DLD-1 colon) | TGI (DMS 114 small cell lung) | TGI (DMS 273 small cell lung) | TGI (HOP-18 NSCLC) | TGI (KM20L2 colon) | TGI (M19-MEL melanoma) | TGI (SNB-78 CNS) | TGI (LXFL 529 NSCLC) | GI50 (UACC-62 melanoma)
COC(=O)[C@H](C)NC(=O)C1(CNC(=O)[C@H](C)NC(=O)OC(C)(C)C)Cc2ccccc2-c2ccccc2C1 | 31.1 µM | 21.2 µM | 33.2 µM | 54 µM | 41.4 µM | 52.5 µM | > 68.9 µM | > 62 µM | 36.5 µM | 34 µM | – | – | – | – | – | – | – | – | –
CC1OC(OC2C(OC(=O)[C@]34CCC(C)(C)CC3C3=CCC5[C@@]6(C)C[C@H](O)[C@H](OC7OC(COC8OC(CO)C(O)C(O)C8O)C(O)C(O)C7O)[C@@](C)(C(=O)O)C6CC[C@@]5(C)C3(C)CC4)OCC(O)C2O)C(O)C(O)C1OC1OCC(O)C(O)C1O (stereo not given in full) | > 100 µM | > 100 µM | > 100 µM | > 100 µM | – | > 100 µM | > 100 µM | – | > 100 µM | > 100 µM | > 100 µM | > 100 µM | > 100 µM | > 100 µM | > 100 µM | > 100 µM | > 100 µM | – | –
Cc1ccc(S(=O)(=O)NN=C2C(C)(C)CC2(C)C)cc1 | > 100 µM | > 100 µM | > 100 µM | > 100 µM | > 100 µM | > 100 µM | > 100 µM | > 100 µM | > 100 µM | > 100 µM | – | – | – | – | – | – | – | – | –
CC(NC(=O)C1CCCN1C(=O)CNC(=O)OC(C)(C)C)C(=O)O (stereo not drawn) (Boc-Gly-Pro-Ala-OH; configuration not given here) | > 100 µM | > 100 µM | > 100 µM | > 100 µM | > 100 µM | > 100 µM | > 100 µM | > 100 µM | > 100 µM | > 100 µM | – | – | – | – | – | – | – | – | –
O=S(=O)(O)c1ccc(Nc2ccnc3ccccc23)cc1 | > 100 µM | > 100 µM | > 100 µM | > 100 µM | > 100 µM | > 100 µM | > 100 µM | > 100 µM | > 100 µM | > 100 µM | – | – | – | – | – | – | – | – | –
O=C(NNC(=S)Nc1ccc(Cl)cc1)C12CC3CC(CC(C3)C1)C2 | 42.5 µM | 56.7 µM | 33.1 µM | > 37.9 µM | 14.8 µM | 32 µM | 38.2 µM | 41.4 µM | 24.8 µM | 21.8 µM | – | – | – | – | – | – | – | – | –
CCCCCCCCCC(=O)NCCc1c[nH]c2ccc(OC)cc12 | 36.2 µM | 31.3 µM | 30 µM | > 100 µM | 38.4 µM | 34.2 µM | 30.5 µM | 54 µM | 31.2 µM | 30.4 µM | – | – | – | – | – | – | – | – | –
Cc1c2oc3c(C)cnc(C(=O)NC4C(=O)NC(C(C)C)C(=O)N5CCCC5C(=O)N(C)CC(=O)N(C)C(C(C)C)C(=O)OC4C)c3nc-2c(C(=O)NC2C(=O)NC(C(C)C)C(=O)N3CCCC3C(=O)N(C)CC(=O)N(C)C(C(C)C)C(=O)OC2C)c(N)c1=O (stereo not given) | > 75 µM | 36 µM | > 75 µM | 2.36 µM | > 75 µM | 24.4 µM | 10.4 µM | > 53.4 µM | > 38 µM | 12.4 µM | – | – | – | – | – | – | – | – | –
CC1(c2nc3ccccc3[nH]2)CCC(C#N)C(C)(C)O1 (stereo not given) | > 100 µM | > 100 µM | > 100 µM | > 100 µM | > 100 µM | > 100 µM | > 100 µM | > 100 µM | > 100 µM | > 100 µM | – | – | – | – | – | – | – | – | –
O=C1CNc2cc(N3CCOCC3)ccc2N1 | > 100 µM | > 100 µM | > 100 µM | > 100 µM | > 100 µM | > 100 µM | > 100 µM | > 100 µM | > 100 µM | > 100 µM | – | – | – | – | – | – | – | – | –
Cc1cc(N(CCC#N)CCC#N)ccc1/C=C1N=C(/C=C/c2ccccc2)N(c2ccc(S(N)(=O)=O)cc2)C\1=O | > 100 µM | > 100 µM | > 100 µM | > 100 µM | – | > 100 µM | > 100 µM | – | > 100 µM | > 100 µM | > 100 µM | > 100 µM | – | – | > 100 µM | > 100 µM | > 100 µM | > 100 µM | –
O=C(O)C1CC(C2CCCCN2)CN2CCCCC12 (stereo not given) | > 100 µM | > 100 µM | > 100 µM | > 100 µM | > 100 µM | > 100 µM | > 100 µM | > 100 µM | > 100 µM | > 100 µM | – | – | – | – | – | – | – | – | –
Cc1cn(CC2=NC3CCCCC3N2)c(=O)[nH]c1=O (stereo not given) | > 100 µM | > 100 µM | > 100 µM | > 100 µM | > 100 µM | > 100 µM | > 100 µM | > 100 µM | > 100 µM | > 100 µM | – | – | – | – | – | – | – | – | –
COc1cccc(C2c3cc4c(cc3OC(NNC(N)=O)C2C)OCO4)c1O (stereo not given) | > 100 µM | 51.8 µM | > 100 µM | > 100 µM | > 100 µM | > 72.2 µM | 44.2 µM | > 100 µM | 34.3 µM | > 100 µM | – | – | – | – | – | – | – | – | –
COc1ccc(C(OC(=O)[C@H](O[Si](C)(C)C(C)(C)C)[C@@H](NC(=O)c2ccccc2)c2ccccc2)c2ccc(OC)cc2)cc1 | > 100 µM | > 100 µM | > 100 µM | > 100 µM | > 100 µM | > 100 µM | > 100 µM | > 100 µM | > 100 µM | > 100 µM | – | – | – | – | – | – | – | – | –
CC(C)C1CC(CO)(CNc2nc(N)nc(Cl)c2/C=N\O)C1 (stereo not given) | 32.7 µM | 35.2 µM | 50.1 µM | > 100 µM | 27.5 µM | > 79.5 µM | 26.5 µM | 4.91 µM | 39.6 µM | 25.4 µM | – | – | – | – | – | – | – | – | –
CN1C(=O)N/C(=C\c2ccc(S(=O)(=O)N/N=C/c3ccccc3)cc2)C1=O | > 100 µM | 75.5 µM | > 100 µM | > 100 µM | > 100 µM | > 100 µM | > 100 µM | > 100 µM | > 100 µM | > 100 µM | – | – | – | – | – | – | – | – | –
C[C@@H](Oc1ccc(Oc2cnc3ccc(Cl)cc3n2)cc1)C(=O)O | > 100 µM | > 100 µM | > 100 µM | > 100 µM | > 100 µM | > 100 µM | > 100 µM | > 100 µM | > 100 µM | > 100 µM | – | – | – | – | – | – | – | – | 46.4 µM

From PubChem BioAssay (NCI)
